Laboratory results as given in ChEMBL document CHEMBL2150866, “Irreversible 4-Aminopiperidine Transglutaminase 2 Inhibitors for Huntington's Disease” (ACS Med Chem Lett, 2012).
pIC50: −log10 of the molar value.

Legend:
[1] = target: T1, Protein-glutamine gamma-glutamyltransferase (Homo sapiens, UniProt P21980); test: Inhibition of human TGM2
T1 sequence (P21980 whole entry): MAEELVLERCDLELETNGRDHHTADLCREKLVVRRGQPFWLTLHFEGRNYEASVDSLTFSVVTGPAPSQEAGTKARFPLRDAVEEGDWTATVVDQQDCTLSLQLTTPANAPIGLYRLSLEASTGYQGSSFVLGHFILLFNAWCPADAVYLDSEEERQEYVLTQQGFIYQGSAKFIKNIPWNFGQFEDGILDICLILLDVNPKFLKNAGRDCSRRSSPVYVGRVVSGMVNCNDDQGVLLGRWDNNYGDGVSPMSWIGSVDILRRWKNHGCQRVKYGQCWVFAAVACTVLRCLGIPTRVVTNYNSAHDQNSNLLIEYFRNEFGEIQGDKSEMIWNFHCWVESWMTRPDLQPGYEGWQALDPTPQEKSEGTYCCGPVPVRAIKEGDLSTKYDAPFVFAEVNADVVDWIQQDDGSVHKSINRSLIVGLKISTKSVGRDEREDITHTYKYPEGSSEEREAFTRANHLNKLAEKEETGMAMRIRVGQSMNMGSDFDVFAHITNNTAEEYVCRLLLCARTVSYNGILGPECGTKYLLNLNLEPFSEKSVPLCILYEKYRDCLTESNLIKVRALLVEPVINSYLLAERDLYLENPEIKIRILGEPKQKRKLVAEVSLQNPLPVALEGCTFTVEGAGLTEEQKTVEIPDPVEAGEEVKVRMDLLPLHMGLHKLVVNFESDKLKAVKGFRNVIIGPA

[2] = Half life in mouse plasma at 1 uM; format: ADME, cell-free
[3] = target: T2, Protein-glutamine gamma-glutamyltransferase K (Homo sapiens, UniProt P22735); test: Inhibition of human TGM1
T2 sequence (P22735 whole entry): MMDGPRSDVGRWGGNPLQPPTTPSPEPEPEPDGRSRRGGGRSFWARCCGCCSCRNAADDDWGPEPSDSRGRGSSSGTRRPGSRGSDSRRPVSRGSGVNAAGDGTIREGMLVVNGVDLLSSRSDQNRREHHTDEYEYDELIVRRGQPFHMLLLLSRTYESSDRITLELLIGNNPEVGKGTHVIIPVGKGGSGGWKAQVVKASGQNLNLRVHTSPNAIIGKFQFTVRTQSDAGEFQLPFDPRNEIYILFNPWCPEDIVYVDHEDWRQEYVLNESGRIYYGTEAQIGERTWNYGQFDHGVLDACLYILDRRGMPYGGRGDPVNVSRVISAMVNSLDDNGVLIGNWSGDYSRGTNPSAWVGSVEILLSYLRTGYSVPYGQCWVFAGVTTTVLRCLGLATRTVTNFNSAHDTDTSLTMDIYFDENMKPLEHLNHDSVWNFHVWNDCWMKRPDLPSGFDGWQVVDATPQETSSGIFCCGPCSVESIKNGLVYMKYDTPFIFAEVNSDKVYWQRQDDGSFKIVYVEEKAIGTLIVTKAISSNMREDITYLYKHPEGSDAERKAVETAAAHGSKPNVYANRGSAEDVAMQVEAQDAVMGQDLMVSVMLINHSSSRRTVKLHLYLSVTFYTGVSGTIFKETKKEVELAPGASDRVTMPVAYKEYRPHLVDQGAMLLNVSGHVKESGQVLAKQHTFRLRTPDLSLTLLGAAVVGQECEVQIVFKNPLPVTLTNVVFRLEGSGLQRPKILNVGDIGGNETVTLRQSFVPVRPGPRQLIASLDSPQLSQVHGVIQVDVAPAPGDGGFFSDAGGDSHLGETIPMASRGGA

[4] = target: T3, Protein-glutamine gamma-glutamyltransferase E (Homo sapiens, UniProt Q08188); test: Inhibition of human TGM3
T3 sequence (Q08188 whole entry): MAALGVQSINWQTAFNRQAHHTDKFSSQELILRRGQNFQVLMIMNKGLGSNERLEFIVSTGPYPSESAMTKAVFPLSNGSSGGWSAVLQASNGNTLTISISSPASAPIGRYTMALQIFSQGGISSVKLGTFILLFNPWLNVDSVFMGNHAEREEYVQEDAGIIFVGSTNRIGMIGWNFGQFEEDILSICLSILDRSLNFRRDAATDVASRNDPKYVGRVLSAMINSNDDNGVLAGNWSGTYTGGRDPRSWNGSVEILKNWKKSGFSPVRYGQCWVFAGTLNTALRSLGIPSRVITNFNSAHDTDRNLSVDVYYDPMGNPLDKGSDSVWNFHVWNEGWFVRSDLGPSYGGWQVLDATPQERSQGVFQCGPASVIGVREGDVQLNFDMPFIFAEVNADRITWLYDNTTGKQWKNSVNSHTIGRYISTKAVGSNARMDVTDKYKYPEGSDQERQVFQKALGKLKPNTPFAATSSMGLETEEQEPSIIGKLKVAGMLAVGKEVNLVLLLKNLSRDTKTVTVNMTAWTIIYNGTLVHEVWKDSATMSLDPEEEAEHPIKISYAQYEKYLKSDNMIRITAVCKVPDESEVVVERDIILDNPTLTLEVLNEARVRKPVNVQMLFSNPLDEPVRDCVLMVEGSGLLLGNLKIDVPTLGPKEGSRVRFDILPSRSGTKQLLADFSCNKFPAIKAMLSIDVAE

[5] = target: T4, Protein-glutamine gamma-glutamyltransferase 6 (Homo sapiens, UniProt O95932); test: Inhibition of human TGM6
T4 sequence (O95932 whole entry): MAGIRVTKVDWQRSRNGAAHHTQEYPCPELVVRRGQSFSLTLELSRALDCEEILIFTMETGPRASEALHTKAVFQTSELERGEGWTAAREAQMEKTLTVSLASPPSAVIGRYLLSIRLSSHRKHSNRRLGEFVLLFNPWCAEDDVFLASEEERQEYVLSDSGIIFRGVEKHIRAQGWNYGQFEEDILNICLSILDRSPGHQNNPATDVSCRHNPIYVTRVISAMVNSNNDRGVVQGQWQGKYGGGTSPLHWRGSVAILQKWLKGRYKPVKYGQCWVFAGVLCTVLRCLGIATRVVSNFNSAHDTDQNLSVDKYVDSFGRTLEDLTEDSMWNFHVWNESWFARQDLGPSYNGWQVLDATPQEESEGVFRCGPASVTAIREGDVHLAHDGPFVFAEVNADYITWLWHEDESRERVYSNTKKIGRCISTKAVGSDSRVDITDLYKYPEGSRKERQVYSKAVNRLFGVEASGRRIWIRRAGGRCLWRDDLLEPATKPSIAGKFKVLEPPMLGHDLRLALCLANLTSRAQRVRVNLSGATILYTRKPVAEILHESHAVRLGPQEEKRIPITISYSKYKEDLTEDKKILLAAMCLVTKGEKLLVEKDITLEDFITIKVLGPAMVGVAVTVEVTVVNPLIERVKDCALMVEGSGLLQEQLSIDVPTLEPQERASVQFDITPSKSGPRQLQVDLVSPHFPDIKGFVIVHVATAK

[6] = target: T5, Coagulation factor XIII A chain (Homo sapiens, UniProt P00488); test: Inhibition of human factor-13A
T5 sequence (P00488 whole entry): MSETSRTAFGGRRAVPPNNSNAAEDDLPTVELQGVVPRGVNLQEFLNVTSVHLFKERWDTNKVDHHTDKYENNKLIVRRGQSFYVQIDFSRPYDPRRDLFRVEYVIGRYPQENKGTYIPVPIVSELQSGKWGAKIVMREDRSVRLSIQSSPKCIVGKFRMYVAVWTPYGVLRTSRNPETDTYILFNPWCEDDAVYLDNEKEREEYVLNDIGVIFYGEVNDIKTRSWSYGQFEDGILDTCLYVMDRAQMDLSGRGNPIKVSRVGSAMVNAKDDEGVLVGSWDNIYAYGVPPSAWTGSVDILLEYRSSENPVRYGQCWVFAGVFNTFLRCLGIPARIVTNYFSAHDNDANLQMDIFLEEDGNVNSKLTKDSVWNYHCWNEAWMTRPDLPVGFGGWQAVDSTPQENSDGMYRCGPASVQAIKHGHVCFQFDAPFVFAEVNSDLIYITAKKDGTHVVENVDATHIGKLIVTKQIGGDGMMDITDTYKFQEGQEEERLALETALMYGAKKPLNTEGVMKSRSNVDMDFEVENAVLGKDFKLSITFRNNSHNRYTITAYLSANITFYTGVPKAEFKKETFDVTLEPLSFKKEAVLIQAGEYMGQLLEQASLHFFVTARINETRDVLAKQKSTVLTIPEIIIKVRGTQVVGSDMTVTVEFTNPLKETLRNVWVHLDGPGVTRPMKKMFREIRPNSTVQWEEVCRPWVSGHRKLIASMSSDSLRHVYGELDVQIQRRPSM

[7] = Half life in human plasma at 1 uM; format: ADME, cell-free
[8] = Chemical stability of the compound in phosphate buffer at pH 7.4 assessed as GSH adduct formation after 120 hrs; format: physicochemical; conditions: pH 7.4, 120 h
[9] = Kinetic solubility of the compound in phosphate buffered saline at pH 7.4; format: physicochemical; conditions: read-out: Kinetic_solubility
[10] = Intrinsic clearance in mouse liver microsomes at 1 uM; format: ADME, Microsome; conditions: read-out: CLH
[11] = Intrinsic clearance in human liver microsomes at 1 uM; format: ADME, Microsome; conditions: read-out: CLH
[12] = Apparent permeability from apical to basolateral side of wild type MDCK cells; format: ADME, cell-based, Canis lupus familiaris; conditions: dog
[13] = Efflux ratio of permeability in wild type MDCK cells; format: ADME, cell-based, Canis lupus familiaris; conditions: dog
[14] = target: T6, Protein-glutamine gamma-glutamyltransferase 2 (Mus musculus, UniProt P21981); test: Inhibition of mouse TGM2
T6 sequence (P21981 whole entry): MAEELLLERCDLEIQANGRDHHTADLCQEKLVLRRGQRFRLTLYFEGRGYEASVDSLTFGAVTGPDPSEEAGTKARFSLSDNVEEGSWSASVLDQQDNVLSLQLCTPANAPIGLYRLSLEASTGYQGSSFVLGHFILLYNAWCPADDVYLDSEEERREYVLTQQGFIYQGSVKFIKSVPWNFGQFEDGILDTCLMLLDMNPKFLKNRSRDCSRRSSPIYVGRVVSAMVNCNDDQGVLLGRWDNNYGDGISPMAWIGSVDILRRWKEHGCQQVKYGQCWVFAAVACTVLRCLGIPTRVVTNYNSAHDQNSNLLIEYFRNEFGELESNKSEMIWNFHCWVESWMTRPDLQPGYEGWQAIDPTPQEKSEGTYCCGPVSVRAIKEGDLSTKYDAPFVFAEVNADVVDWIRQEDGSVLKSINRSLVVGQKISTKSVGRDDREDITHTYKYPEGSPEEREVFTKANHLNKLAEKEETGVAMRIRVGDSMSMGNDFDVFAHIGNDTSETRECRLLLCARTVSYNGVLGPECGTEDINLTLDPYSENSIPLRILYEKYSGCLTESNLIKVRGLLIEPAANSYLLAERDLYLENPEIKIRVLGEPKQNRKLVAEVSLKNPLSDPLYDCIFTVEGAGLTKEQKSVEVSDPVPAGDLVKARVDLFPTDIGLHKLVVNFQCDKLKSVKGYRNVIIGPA

pIC50 [1] | half-life at 1 µM [2] | pIC50 [3] | pIC50 [4] | pIC50 [5] | pIC50 [6] | half-life at 1 µM [7] | Stability [8] | solubility kinetic [9] | microsomal CLint at 1 µM [10] | microsomal CLint at 1 µM [11] | Papp A→B [12] | efflux ratio [13] | pIC50 [14] | SMILES
6.55 | 4 h | 6.04 | < 4.10 | 5.05 | 5.44 | > 6 h | Stable | – | – | – | – | – | – | C=CC(=O)NC1CCN(S(=O)(=O)c2ccc(NC(=O)OCc3ccccc3)cc2)CC1
6.74 | > 6 h | – | – | – | – | > 6 h | – | < 10 µg/mL | 99 µL/min/mg | 595 µL/min/mg | 8.3 ×10⁻⁶ cm/s | 44 | – | C=CC(=O)NC1CCN(S(=O)(=O)c2ccc(C(=O)NCCc3ccccc3)cc2)CC1
– | > 6 h | 5.92 | – | 4.47 | 5.19 | > 6 h | – | – | – | – | – | – | 7.26 | C=CC(=O)NC1CCN(S(=O)(=O)c2ccc(C(=O)NCCc3ccc(OC)cc3)cc2)CC1
